In PubChem BioAssay AID1259411 (Chemical Carcinogenesis Research Information System (CCRIS), 2018) one finds carcinogen call data, which are given here for 9 compounds.

The subject of the data set is rodent carcinogenicity bioassays, tumor incidence. Briefly: CCRIS carcinogenicity studies. The essentials: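 NCI-built, expert-reviewed records of carcinogenicity and related test outcomes (mutagenicity, tumor promotion/inhibition) compiled from published and report sources, historical span 1985-2011, not updated.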

Molecules are shown by their SMILES. Calls of active or inactive are those of the source. How the calls were made is not given here.

Turning to `OC[C@H]1O[C@@H]2O[C@H]3[C@H](O)[C@@H](O)[C@@H](O[C@H]4[C@H](O)[C@@H](O)[C@@H](O[C@H]5[C@H](O)[C@@H](O)[C@@H](O[C@H]6[C@H](O)[C@@H](O)[C@@H](O[C@H]7[C@H](O)[C@@H](O)[C@@H](O[C@H]8[C@H](O)[C@@H](O)[C@@H](O[C@H]1[C@H](O)[C@H]2O)O[C@@H]8CO)O[C@@H]7CO)O[C@@H]6CO)O[C@@H]5CO)O[C@@H]4CO)O[C@@H]3CO`, the carcinogen call runs as follows: (Species: MOUSE, Strain/Sex: CD-1/FEMALE, Route: ORAL, Dose: 0, 25, 75, 225, 675 MG/KG/D IN DIET FOR 105 WK (STUDY DURATION: 105 WK), Dose: 0, 25, 75, 225, 675 MG/KG/D IN DIET FOR 105 WK (STUDY DURATION: 105 WK)) “inactive; negative”; (Species: MOUSE, Strain/Sex: CD-1/MALE, Route: ORAL, Dose: 0, 25, 75, 225, 675 MG/KG/D IN DIET FOR 93 WK (STUDY DURATION: 93 WK), Dose: 0, 25, 75, 225, 675 MG/KG/D IN DIET FOR 93 WK (STUDY DURATION: 93 WK)) “inactive; negative”; (Species: RAT, Strain/Sex: F344/FEMALE, Route: ORAL, Dose: 0, 2.5, 5% IN DIET FOR 104 WK (STUDY DURATION: 109 WK), Dose: 0, 2.5, 5% IN DIET FOR 104 WK (STUDY DURATION: 109 WK)) “inactive; negative”; (Species: RAT, Strain/Sex: F344/FEMALE, Route: ORAL, Dose: 0, 25, 75, 225, 675 MG/KG/D IN DIET FOR 130 WK (STUDY DURATION: 130 WK), Dose: 0, 25, 75, 225, 675 MG/KG/D IN DIET FOR 130 WK (STUDY DURATION: 130 WK)) “inactive; negative”; (Species: RAT, Strain/Sex: F344/MALE, Route: ORAL, Dose: 0, 2.5, 5% IN DIET FOR 104 WK (STUDY DURATION: 109 WK), Dose: 0, 2.5, 5% IN DIET FOR 104 WK (STUDY DURATION: 109 WK)) “inactive; negative”; (Species: RAT, Strain/Sex: F344/MALE, Route: ORAL, Dose: 0, 25, 75, 225, 675 MG/KG/D IN DIET FOR 122 WK (STUDY DURATION: 122 WK), Dose: 0, 25, 75, 225, 675 MG/KG/D IN DIET FOR 122 WK (STUDY DURATION: 122 WK)) “inactive; negative”.
In the case of `ClCC(Cl)(Cl)Cl`, the carcinogen call reads like this: (Species: MOUSE, Strain/Sex: B6C3F1/FEMALE, Route: GAVAGE, Dose: 0, 250, 500 MG/KG IN CORN OIL, Dose: 0, 250, 500 MG/KG IN CORN OIL, Tumor Site: Type of Lesion: LIVER: HEPATOCELLULAR ADENOMA OR CARCINOMA) “active; positive”; (Species: MOUSE, Strain/Sex: B6C3F1/MALE, Route: GAVAGE, Dose: 0, 250, 500 MG/KG IN CORN OIL, Dose: 0, 250, 500 MG/KG IN CORN OIL, Tumor Site: Type of Lesion: LIVER: HEPATOCELLULAR ADENOMA) “active; positive”; (Species: RAT, Strain/Sex: F344/FEMALE, Route: GAVAGE, Dose: 0, 125, 250 MG/KG IN CORN OIL 5 D/WK FOR 103 WK (STUDY DURATION: 103 WK), Dose: 0, 125, 250 MG/KG IN CORN OIL 5 D/WK FOR 103 WK (STUDY DURATION: 103 WK)) “inactive; negative”; (Species: RAT, Strain/Sex: F344/MALE, Route: GAVAGE, Dose: 0, 125, 250 MG/KG IN CORN OIL 5 D/WK FOR 103 WK (STUDY DURATION: 103 WK), Dose: 0, 125, 250 MG/KG IN CORN OIL 5 D/WK FOR 103 WK (STUDY DURATION: 103 WK), Tumor Site: Type of Lesion: LIVER: NEOPLASTIC NODULE, HEPATOCELLULAR CARCINOMA) “equivocal”.
For `O=C(O)CN(CCN(CC(=O)O)CC(=O)O)CC(=O)O`, the carcinogen call reads like this: (Species: MOUSE, Strain/Sex: B6C3F1/FEMALE, Route: ORAL, Dose: 0, 3750, 7500 PPM IN DIET, Dose: 0, 3750, 7500 PPM IN DIET) “inactive; negative”; (Species: MOUSE, Strain/Sex: B6C3F1/MALE, Route: ORAL, Dose: 0, 3750, 7500 PPM IN DIET, Dose: 0, 3750, 7500 PPM IN DIET) “inactive; negative”; (Species: RAT, Strain/Sex: F344/FEMALE, Route: ORAL, Dose: 0, 3750, 7500 PPM IN DIET, Dose: 0, 3750, 7500 PPM IN DIET) “inactive; negative”; (Species: RAT, Strain/Sex: F344/MALE, Route: ORAL, Dose: 0, 3750, 7500 PPM IN DIET, Dose: 0, 3750, 7500 PPM IN DIET) “inactive; negative”.
In the case of `Cc1ccc(S(=O)(=O)NC(=O)NN2CCCCCC2)cc1`, the carcinogen call is “inactive; negative” (Species: MOUSE, Strain/Sex: B6C3F1/FEMALE, Route: ORAL, Dose: 0, 5000, 10000 PPM IN DIET, Dose: 0, 5000, 10000 PPM IN DIET); “inactive; negative” (Species: MOUSE, Strain/Sex: B6C3F1/MALE, Route: ORAL, Dose: 0, 5000, 10000 PPM IN DIET, Dose: 0, 5000, 10000 PPM IN DIET); “inactive; negative” (Species: RAT, Strain/Sex: F344/FEMALE, Route: ORAL, Dose: 0, 5000, 10000 PPM IN DIET, Dose: 0, 5000, 10000 PPM IN DIET); “inactive; negative” (Species: RAT, Strain/Sex: F344/MALE, Route: ORAL, Dose: 0, 5000, 10000 PPM IN DIET, Dose: 0, 5000, 10000 PPM IN DIET).
Turning to `Clc1cccc(-c2cccc(Cl)c2)c1`, where the note is “Species: RAT, Strain/Sex: WISTAR/MALE, Route: ORAL, Dose: 0, 100 PPM IN DIET FOR DURATION OF STUDY (STUDY DURATION: 832 D)”, the carcinogen call is “inactive; negative”.
Take `CN(N=O)C1CCCCC1`: the carcinogen call reads like this: (Species: HAMSTER, Strain/Sex: SYRIAN/FEMALE, Route: GAVAGE, Dose: 0, 2.5 MG/KG 1/WK FOR 50 WK (TOTAL DOSE: 0; 0.9 MMOL) (STUDY DURATION: LIFETIME), Dose: 0, 2.5 MG/KG 1/WK FOR 50 WK (TOTAL DOSE: 0; 0.9 MMOL) (STUDY DURATION: LIFETIME)) “inactive; negative”; (Species: HAMSTER, Strain/Sex: SYRIAN/MALE, Route: GAVAGE, Dose: 0, 2.5 MG/KG 1/WK FOR 50 WK (TOTAL DOSE: 0; 0.9 MMOL) (STUDY DURATION: LIFETIME), Dose: 0, 2.5 MG/KG 1/WK FOR 50 WK (TOTAL DOSE: 0; 0.9 MMOL) (STUDY DURATION: LIFETIME), Tumor Site: Type of Lesion: LUNG: ALVEOLAR/BRONCHIAL ADENOMA, ADENOSQUAMOUS CARCINOMA) “active; positive”.
With `O=[N+]([O-])c1ccccc1Cl`, the carcinogen call (Species: MOUSE, Strain/Sex: CD-1/FEMALE, Route: ORAL, Dose: 3000, 6000 MG/KG IN DIET FOR 18 MO, Tumor Site: Type of Lesion: LIVER: HEPATOCELLULAR CARCINOMA) is “active; positive”.
`O=P1(NCCCl)OCCCN1CCCl` (centres undefined): the carcinogen call by setting is: (Species: MOUSE, Strain/Sex: B6C3F1/FEMALE, Route: INTRAPERITONEAL, Dose: 0, 10, 20 MG/KG IN BUFFERED SALINE 3/WK FOR 52 WK (STUDY DURATION: 79-80 WK), Dose: 0, 10, 20 MG/KG IN BUFFERED SALINE 3/WK FOR 52 WK (STUDY DURATION: 79-80 WK), Tumor Site: Type of Lesion: LYMPHATIC SYSTEM: MALIGNANT LYMPHOMA) “active; positive”; (Species: MOUSE, Strain/Sex: B6C3F1/MALE, Route: INTRAPERITONEAL, Dose: 0, 10, 20 MG/KG IN BUFFERED SALINE 3/WK FOR 52 WK (STUDY DURATION: 79-80 WK), Dose: 0, 10, 20 MG/KG IN BUFFERED SALINE 3/WK FOR 52 WK (STUDY DURATION: 79-80 WK)) “inactive; negative”; (Species: MOUSE, Strain/Sex: STRAIN-A/MALE,FEMALE, Route: INTRAPERITONEAL, Dose: 0, 18.8, 47 MG/KG IN WATER 3/WK FOR 8 WK, Dose: 0, 18.8, 47 MG/KG IN WATER 3/WK FOR 8 WK, Tumor Site: Type of Lesion: LUNG) “active; positive”; (Species: RAT, Strain/Sex: SPRAGUE-DAWLEY/FEMALE, Route: INTRAPERITONEAL, Dose: 0, 6, 12 MG/KG IN BUFFERED SALINE 3/WK FOR 52 WK (STUDY DURATION: 79-83 WK), Dose: 0, 6, 12 MG/KG IN BUFFERED SALINE 3/WK FOR 52 WK (STUDY DURATION: 79-83 WK), Tumor Site: Type of Lesion: MAMMARY GLAND: CYSTADENOMA OR CYSTADENOCARCINOMA, UTERUS: LEIOMYOSARCOMA;ADRENAL GLAND: CORTICAL ADENOMA, Tumor Site: Type of Lesion: MAMMARY GLAND: CYSTADENOMA OR CYSTADENOCARCINOMA, UTERUS: LEIOMYOSARCOMA;ADRENAL GLAND: CORTICAL ADENOMA) “active; positive”; (Species: RAT, Strain/Sex: SPRAGUE-DAWLEY/MALE, Route: INTRAPERITONEAL, Dose: 0, 6, 12 MG/KG IN BUFFERED SALINE 3/WK FOR 52 WK (STUDY DURATION: 79-83 WK), Dose: 0, 6, 12 MG/KG IN BUFFERED SALINE 3/WK FOR 52 WK (STUDY DURATION: 79-83 WK)) “inactive; negative”.
As to `CC1=C[C@H]2O[C@@H]3[C@H](O)C[C@](C)([C@@]2(CO)[C@H](O)C1=O)[C@]31CO1`, the carcinogen call was “inactive; negative” (Species: MOUSE, Strain/Sex: B6C3F1/FEMALE, Route: ORAL, Dose: 0, 1, 5, 10 PPM IN DIET FOR 2 YR (STUDY DURATION: 2 YR), Dose: 0, 1, 5, 10 PPM IN DIET FOR 2 YR (STUDY DURATION: 2 YR)) and “inactive; negative” (Species: MOUSE, Strain/Sex: B6C3F1/MALE, Route: ORAL, Dose: 0, 1, 5, 10 PPM IN DIET FOR 2 YR (STUDY DURATION: 2 YR), Dose: 0, 1, 5, 10 PPM IN DIET FOR 2 YR (STUDY DURATION: 2 YR)).
